# pIC50: −log10 of the molar value.
# What was measured:
# [1] = Inhibition of recombinant human His6-tagged USP28-5 (1 to 1077 residues) using Ub-Rh110 as substrate pretreated for 30 mins followed by substrate addition measured after 20 mins by fluorescence assay
# [2] = target: T1, Ubiquitin carboxyl-terminal hydrolase 25 (Homo sapiens, UniProt Q9UHP3); assay: Inhibition of recombinant human His6-tagged USP25 expressed in baculovirus infected Sf21 insect cells using Ub-Rh110 as substrate pretreated for 30 mins followed by substrate addition measured after 45 mins by fluorescence assay
# T1 sequence (Q9UHP3 whole entry): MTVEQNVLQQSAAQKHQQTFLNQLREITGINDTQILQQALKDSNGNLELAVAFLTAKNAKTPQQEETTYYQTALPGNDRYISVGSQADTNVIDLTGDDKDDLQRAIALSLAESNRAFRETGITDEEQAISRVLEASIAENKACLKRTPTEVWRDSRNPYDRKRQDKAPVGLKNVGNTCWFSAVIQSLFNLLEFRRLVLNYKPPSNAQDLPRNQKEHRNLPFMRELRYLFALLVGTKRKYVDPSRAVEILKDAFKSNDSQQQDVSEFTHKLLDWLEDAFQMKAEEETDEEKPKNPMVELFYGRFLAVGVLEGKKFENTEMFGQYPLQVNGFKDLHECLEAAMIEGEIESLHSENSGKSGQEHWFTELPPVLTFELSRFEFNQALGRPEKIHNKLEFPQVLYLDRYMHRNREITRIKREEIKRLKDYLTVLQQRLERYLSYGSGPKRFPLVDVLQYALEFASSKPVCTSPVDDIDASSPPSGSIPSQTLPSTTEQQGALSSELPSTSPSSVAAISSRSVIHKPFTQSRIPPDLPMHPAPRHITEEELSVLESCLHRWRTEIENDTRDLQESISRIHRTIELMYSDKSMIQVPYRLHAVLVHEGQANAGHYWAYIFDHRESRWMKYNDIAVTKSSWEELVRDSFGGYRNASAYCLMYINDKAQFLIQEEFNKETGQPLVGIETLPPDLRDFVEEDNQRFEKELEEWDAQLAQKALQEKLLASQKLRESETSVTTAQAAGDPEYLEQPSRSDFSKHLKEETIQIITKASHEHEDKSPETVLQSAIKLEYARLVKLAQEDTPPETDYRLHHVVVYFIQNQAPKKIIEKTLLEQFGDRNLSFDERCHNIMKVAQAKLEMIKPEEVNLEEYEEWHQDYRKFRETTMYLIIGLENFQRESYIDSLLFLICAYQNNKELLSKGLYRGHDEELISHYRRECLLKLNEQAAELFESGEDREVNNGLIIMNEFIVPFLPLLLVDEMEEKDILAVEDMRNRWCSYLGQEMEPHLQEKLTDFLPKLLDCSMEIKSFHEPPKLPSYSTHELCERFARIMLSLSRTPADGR
SMILES,pIC50 [1],pIC50 [2]
Cc1cnc2c(N)c(C(=O)NC[C@H](C)c3ccc(N4CC5CCC(C4)N5)c(F)c3)sc2n1,5.70 to 6.70,5.00 to 5.70
Cc1cnc2c(N)c(C(=O)NCCc3cc(F)c(N4CC5CCC(C4)N5)cc3F)sc2n1,> 6.70,5.70 to 6.70
Cc1cnc2c(N)c(C(=O)NCCc3ccc(N4CC5CCC(C4)N5)c(Cl)c3)sc2n1,> 6.70,–
Cc1cnc2c(N)c(C(=O)NC[C@@H](C)c3ccc(N4CC5CCC(C4)N5)c(F)c3)sc2n1,5.70 to 6.70,5.00 to 5.70
Cc1cnc2c(N)c(C(=O)NCCc3ccc(N4CCNCC4)c(Cl)c3)sc2n1,5.70 to 6.70,–
Cc1cnc2c(N)c(C(=O)NCCc3ccc(N4CC5CCC(C4)N5)c(F)c3)sc2n1,> 6.70,> 6.70
Cc1cnc2c(N)c(C(=O)NCCc3ccc(N4CCNCC4)cc3)sc2n1,5.70 to 6.70,–
Cc1cnc2c(N)c(C(=O)NCCc3cc(F)c(N4CCNCC4)cc3F)sc2n1,5.70 to 6.70,5.00 to 5.70

# — ChEMBL document CHEMBL4130588, “Ubiquitin-Specific Inhibitors for the Treatment of Cancers, Autoimmune, and Infectious Diseases” (ACS Med Chem Lett, 2017)
